From PMC9516332 (Frontiers in Oncology, 2022)
Like-named read-outs stand apart in the source and are kept apart here.

Columns and labels:
Experiment in all cases: Kinase panel profiling at 1 µmol/L (MSA or IMAP), percentage inhibition
Assay type in all cases: biochemical
[1] = biological target: panel of 255 wild-type kinases (Homo sapiens, UniProt P35916); details: read-out: %-inhibition at 1 µmol/L, FLT4
[2] = biological target: panel of 255 wild-type kinases (Homo sapiens, UniProt Q7KZI7); details: read-out: %-inhibition, MARK2
[3] = biological target: panel of 255 wild-type kinases (Homo sapiens, UniProt P50750); details: read-out: %-inhibition CDK9/CycT1
[4] = biological target: panel of 255 wild-type kinases (Homo sapiens, UniProt Q13131); details: read-out: %-inhibition AMPKα1/β1/γ1
[5] = biological target: T1, panel of 255 wild-type kinases (Homo sapiens, UniProt Q16566); details: read-out: %-inhibition CaMK4
T1 sequence (Q16566 1-473): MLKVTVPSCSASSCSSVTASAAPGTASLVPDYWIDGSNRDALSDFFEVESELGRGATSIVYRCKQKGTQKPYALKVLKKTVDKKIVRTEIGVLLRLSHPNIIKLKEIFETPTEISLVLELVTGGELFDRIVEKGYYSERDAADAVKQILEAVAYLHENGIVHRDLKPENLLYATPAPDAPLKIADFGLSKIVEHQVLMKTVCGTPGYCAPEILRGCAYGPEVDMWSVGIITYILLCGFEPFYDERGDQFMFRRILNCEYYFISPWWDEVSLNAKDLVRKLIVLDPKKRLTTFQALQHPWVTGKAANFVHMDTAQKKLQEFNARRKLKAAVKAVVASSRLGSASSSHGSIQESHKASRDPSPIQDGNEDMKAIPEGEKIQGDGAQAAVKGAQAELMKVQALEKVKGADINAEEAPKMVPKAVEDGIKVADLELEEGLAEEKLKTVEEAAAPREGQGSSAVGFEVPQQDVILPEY

[6] = biological target: panel of 255 wild-type kinases (Homo sapiens, UniProt P51812); details: read-out: %-inhibition at 1 µmol/L, RSK2
[7] = biological target: T2, panel of 255 wild-type kinases (Homo sapiens, UniProt Q9NRA0); details: read-out: %-inhibition at 1 µmol/L, SPHK2
T2 sequence (Q9NRA0 1-654): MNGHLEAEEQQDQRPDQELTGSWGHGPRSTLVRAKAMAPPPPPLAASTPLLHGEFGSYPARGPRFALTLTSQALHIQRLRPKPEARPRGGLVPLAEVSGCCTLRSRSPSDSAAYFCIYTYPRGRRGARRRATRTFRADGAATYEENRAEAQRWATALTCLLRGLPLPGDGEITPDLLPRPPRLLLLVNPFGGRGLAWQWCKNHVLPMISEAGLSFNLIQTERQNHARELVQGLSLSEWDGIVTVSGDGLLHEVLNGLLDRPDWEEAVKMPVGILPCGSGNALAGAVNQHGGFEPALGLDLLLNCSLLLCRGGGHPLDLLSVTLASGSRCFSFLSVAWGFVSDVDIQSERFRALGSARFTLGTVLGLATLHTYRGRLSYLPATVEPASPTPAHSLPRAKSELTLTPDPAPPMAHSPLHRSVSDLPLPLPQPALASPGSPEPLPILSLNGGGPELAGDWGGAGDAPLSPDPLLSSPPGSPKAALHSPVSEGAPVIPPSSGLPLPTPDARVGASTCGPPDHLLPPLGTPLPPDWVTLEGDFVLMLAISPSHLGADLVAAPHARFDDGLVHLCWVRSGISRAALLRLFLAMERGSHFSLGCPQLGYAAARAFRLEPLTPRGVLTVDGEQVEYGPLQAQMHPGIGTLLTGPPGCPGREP

[8] = biological target: panel of 255 wild-type kinases (Homo sapiens, UniProt P19784); details: read-out: %-inhibition at 1 µmol/L, CK2α2/β
[9] = biological target: panel of 255 wild-type kinases (Homo sapiens, UniProt P31751); details: read-out: %-inhibition AKT2
[10] = biological target: panel of 255 wild-type kinases (Homo sapiens, UniProt P22694); details: read-out: %-inhibition at 1 µmol/L, PKACβ
[11] = biological target: T3, panel of 255 wild-type kinases (Homo sapiens, UniProt P43403); details: read-out: %-inhibition at 1 µmol/L, ZAP70
T3 sequence (P43403 1-619): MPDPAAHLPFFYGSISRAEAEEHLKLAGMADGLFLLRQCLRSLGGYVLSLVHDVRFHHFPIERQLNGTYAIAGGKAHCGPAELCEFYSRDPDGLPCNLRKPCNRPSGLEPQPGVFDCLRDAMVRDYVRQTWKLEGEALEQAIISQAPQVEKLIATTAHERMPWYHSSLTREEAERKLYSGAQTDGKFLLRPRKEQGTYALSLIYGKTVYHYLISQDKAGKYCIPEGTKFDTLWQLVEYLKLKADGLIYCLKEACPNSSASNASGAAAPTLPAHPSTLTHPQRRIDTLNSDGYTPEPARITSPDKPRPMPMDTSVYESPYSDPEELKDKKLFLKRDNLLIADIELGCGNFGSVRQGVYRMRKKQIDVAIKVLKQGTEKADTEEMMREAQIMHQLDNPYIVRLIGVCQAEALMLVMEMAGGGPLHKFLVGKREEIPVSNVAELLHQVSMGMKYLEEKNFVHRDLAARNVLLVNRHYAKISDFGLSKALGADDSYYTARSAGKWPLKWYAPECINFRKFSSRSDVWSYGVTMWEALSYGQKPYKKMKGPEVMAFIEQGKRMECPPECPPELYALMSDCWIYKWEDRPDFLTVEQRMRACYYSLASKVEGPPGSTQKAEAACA

[12] = biological target: panel of 255 wild-type kinases (Homo sapiens, UniProt P08922); details: read-out: %-inhibition at 1 µmol/L, ROS
[13] = kinase FLT4, 1 µmol/L single concentration
[14] = MARK2, 1 µmol/L single concentration
[15] = CDK9/CycT1 kinase assay, 1 µmol/L single concentration
[16] = AMPKα1/β1/γ1 kinase assay, 1 µmol/L single concentration
[17] = CaMK4 kinase assay, 1 µmol/L single concentration
[18] = kinase RSK2, 1 µmol/L single concentration
[19] = kinase SPHK2, 1 µmol/L single concentration
[20] = kinase CK2α2/β, 1 µmol/L single concentration
[21] = AKT2 kinase assay, 1 µmol/L single concentration
[22] = kinase PKACβ, 1 µmol/L single concentration
[23] = kinase ZAP70, 1 µmol/L single concentration
[24] = kinase ROS, 1 µmol/L single concentration

| Compound | inhibition at 1 µM [1, 13] [%] | inhibition at 1 µM [2, 14] [%] | inhibition at 1 µM [3, 15] [%] | inhibition at 1 µM [4, 16] [%] | inhibition at 1 µM [5, 17] [%] | inhibition at 1 µM [6, 18] [%] | inhibition at 1 µM [7, 19] [%] | inhibition at 1 µM [8, 20] [%] | inhibition at 1 µM [9, 21] [%] | inhibition at 1 µM [10, 22] [%] | inhibition at 1 µM [11, 23] [%] | inhibition at 1 µM [12, 24] [%] | other results |
| --- | --- | --- | --- | --- | --- | --- | --- | --- | --- | --- | --- | --- | --- |
| COC(=O)N[C@@H](C)CNc1nccc(-c2cn(C(C)C)nc2-c2cc(Cl)cc(NS(C)(=O)=O)c2F)n1 [encorafenib] | 17 | 5.68 | -1.11 | -2.31 | 4.35 | 3.78 | -12 | -3.75 | 2 | 9.51 | 0.195 | 14 |  |
| C[C@H](Nc1ncnc2nc[nH]c12)c1cc2cccc(Cl)c2c(=O)n1-c1ccccc1 [duvelisib] | 0.523 | -2.13 | -0.441 | -4 | -3 | -3.62 | 11 | -1.47 | -0.908 | -16 | 2 | -3.53 |  |
| CCN1CCN(c2ccc(Nc3cc(N(C)C(=O)Nc4c(Cl)c(OC)cc(OC)c4Cl)ncn3)cc2)CC1 [infigratinib] | 92 | -9 | -0.383 | -4 | 2.47 | -7 | 2 | -2.17 | -0.769 | -17 | -2.77 | 29 |  |
| CNC(=O)c1ccc(-c2cnc3ncc(Cc4ccc5ncccc5c4)n3n2)cc1F [capmatinib] |  |  |  |  |  |  |  |  |  |  |  |  | inhibition at 1 µM [1]: 10%; inhibition at 1 µM [2]: -8%; inhibition at 1 µM [3]: -0.278%; inhibition at 1 µM [4]: -4.64%; inhibition at 1 µM [5]: -2.8%; inhibition at 1 µM [6]: -3%; inhibition at 1 µM [7]: -2%; inhibition at 1 µM [8]: -0.77%; inhibition at 1 µM [9]: 1.54%; inhibition at 1 µM [10]: -9%; inhibition at 1 µM [11]: 4%; inhibition at 1 µM [12]: 21% |
| FC(F)(F)c1ccc(CNc2ccc(Cc3c[nH]c4ncc(Cl)cc34)cn2)cn1 [pexidartinib] | 66 | 5.3 | 7 | -11 | 4 | 14 | 7 | 0.601 | -6 | 4 | -7 | 37 |  |
| O=C(Nc1cnn2ccc(N3CCC[C@@H]3c3cc(F)ccc3F)nc12)N1CC[C@H](O)C1 [larotrectinib] | -1 | -19 | -0.399 | -5.64 | 0.861 | -7.4 | -1.56 | -3 | -5.27 | -14 | 4.69 |  | inhibition at 1 µM [12]: 86% |
| CCc1nc(C(N)=O)c(Nc2ccc(N3CCC(N4CCN(C)CC4)CC3)c(OC)c2)nc1NC1CCOCC1 [gilteritinib] | 99 | 43 | 32 | 0.625 | 18 | 48 | 9 | 23 | -4.73 | 22 | 46 | 100 |  |
| CCn1c(=O)c(-c2cc(NC(=O)Nc3ccccc3)c(F)cc2Br)cc2cnc(NC)cc21 [ripretinib] | 93 | -2.22 | 0.112 | -10 | 1.71 | 3.31 | -10 | -0.613 | -5 | -3.65 | -8 | 3.79 |  |
| CN1CCN(c2ccc(C(=O)Nc3n[nH]c4ccc(Cc5cc(F)cc(F)c5)cc34)c(NC3CCOCC3)c2)CC1 [entrectinib] |  | 9 | 1.79 | 55 | 1.07 |  | 20 | 2 | -3.69 | -21 | 2.19 |  |  |
| Cn1cnc2c(F)c(Nc3ccc(Br)cc3F)c(C(=O)NOCCO)cc21 [binimetinib] | 3.37 | -6 | -1.47 | -7 | 2.67 | 0.103 | -7.55 | -1.89 | 0.0508 | -0.56 | -1.09 | 16 |  |
| COc1ccc(CN2C3CC2CN(c2ccc(-c4cc(OCC(C)(C)O)cn5ncc(C#N)c45)cn2)C3)cn1 [selpercatinib] | 101 | 26 | 2.54 | 22 | -2.54 | 47 | -3.75 | 0.638 | -1.76 | -4.64 | 8 | 64 |  |
